Where a name gives a salt, the structure may show the parent alone. Read-outs that look alike come from different tables or passages of the source.
How the values were obtained:
Format in all cases: cell-based, human
HTT mRNA = test: Splicing RT-qPCR assay, HTT canonical (CJ) and alternative (AJ) junction mRNA; conditions: Homo sapiens; for IC50: canonical junction mRNA; for AC50: alternative junction mRNA, read-out: HTT AJ (AC50, increase in AJ mRNA)
Summary of the method: (§1)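 Cmpd 24 h, 37 °C/5% CO2; 11-pt 3x serial dilution from 10 uM final; DMSO max 0.25%. Cells: A673 (DMEM/10% FBS, pre-adhered 24 h) or K562 (IMDM/10% FBS). Lyse, DNase I, then 1-step RT-qPCR for CJ and AJ; housekeeping-normalized.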

MYB mRNA = test: Splicing RT-qPCR assay, MYB canonical (CJ) and alternative (AJ) junction mRNA; conditions: Homo sapiens; for IC50: canonical junction mRNA; for AC50: alternative junction mRNA, read-out: MYB AJ (AC50, increase in AJ mRNA)
Summary of the method: as §1

Target C mRNA = test: Splicing RT-qPCR panel, Target C canonical junction (CJ) mRNA; conditions: Homo sapiens, read-out: Target C CJ (decrease in CJ mRNA levels, IC50)
Summary of the method: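 A673 cells (DMEM, 10% FBS) or K562 cells (IMDM, 10% FBS) treated 24 h at 37 °C with an 11-point 3-fold dilution, top 10 uM, DMSO ≤0.25%. Canonical-junction mRNA quantified in lysates by RT-qPCR, normalised to GAPDH, GUSB or PPIA and to DMSO (2^−ΔΔCt), then converted to % response.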

[1] = 24 h, RT-qPCR, A673 or K562 cells, 24 hours treatment, read-out: HTT CJ (IC50, decrease in CJ mRNA)
[2] = qPCR panel, read-out: HTT CJ (decrease in CJ mRNA levels, IC50)
[3] = RT-qPCR, A673 or K562 cells, 24 hours treatment
[4] = qPCR panel, read-out: MYB CJ (decrease in CJ mRNA levels, IC50)
[5] = RT-qPCR, A673 or K562 cells, 24 hours treatment, read-out: MYB CJ (IC50, decrease in CJ mRNA)

Row | SMILES | IC50 (HTT mRNA; [1]) | IC50 (HTT mRNA; [2]) | AC50 (HTT mRNA; [3]) | IC50 (MYB mRNA; [4]) | AC50 (MYB mRNA; [3]) | IC50 (MYB mRNA; [5]) | IC50 (Target C mRNA)
1 | CN[C@@H]1CN(c2cnc3nc(-c4cc5cn(C)nc5c(C)c4O)ccc3c2)C[C@H]1F (single isomer, unassigned) [Compound 130] | 100 to 1000 nM | 100 to 1000 nM | 100 to 1000 nM | < 100 nM | < 100 nM | < 100 nM | 100 to 1000 nM
2 | CN[C@H]1CN(c2cnc3nc(-c4cc5cn(C)nc5c(C)c4O)ccc3c2)C[C@@H]1F (single isomer, unassigned) [Compound 131] | 1000 to 10000 nM | 1000 to 10000 nM | 1000 to 10000 nM | 100 to 1000 nM | 100 to 1000 nM | 100 to 1000 nM | 1000 to 10000 nM
3 | Cc1c(O)c(-c2ccc3cc(N4CCC(NCC5CC5)C4)cnc3n2)cc2cn(C)nc12 (stereo in doubt) [Compound 119, 5-{6-[(3R)-3-[(cyclopropylmethyl)amino]pyrrolidin-1-yl]-1,8-naphthyridin-2-yl}-2,7-dimethylindazol-6-ol] | < 100 nM | < 100 nM | 100 to 1000 nM | < 100 nM | < 100 nM | < 100 nM | 100 to 1000 nM
4 | CNC1CCN(c2cnc3nc(-c4cc5cn(C)nc5c(C)c4O)ncc3c2)C1 (stereo not drawn) [Compound 104, 2,7-dimethyl-5-{6-[3-(methylamino)pyrrolidin-1-yl]pyrido[2,3-d]pyrimidin-2-yl}indazol-6-ol] | 100 to 1000 nM | 100 to 1000 nM | 100 to 1000 nM | < 100 nM | < 100 nM | < 100 nM | 
5 | Cc1c(O)c(-c2ccc3cc(N4CCC(NCC5CC5)C4)cnc3n2)cc2cn(C)nc12 (stereo not drawn) [Compound 105, 5-(6-{3-[(cyclopropylmethyl)amino]pyrrolidin-1-yl}-1,8-naphthyridin-2-yl)-2,7-dimethylindazol-6-ol] | 100 to 1000 nM | 100 to 1000 nM | 100 to 1000 nM | < 100 nM | < 100 nM | < 100 nM | 1000 to 10000 nM
6 | CCNC1CCN(c2cnc3nc(-c4cc5cn(C)nc5c(F)c4O)ccc3c2)C1 (stereo not drawn) [Compound 106, 5-{6-[3-(ethylamino)pyrrolidin-1-yl]-1,8-naphthyridin-2-yl}-7-fluoro-2-methylindazol-6-ol] | 100 to 1000 nM | 100 to 1000 nM | 100 to 1000 nM | < 100 nM | < 100 nM | < 100 nM | 100 to 1000 nM
7 | CN[C@@H]1CCN(c2cnc3nc(-c4cc5cn(C)nc5c(C)c4O)ncc3c2)C1 [Compound 107, 2,7-dimethyl-5-{6-[(3R)-3-(methylamino)pyrrolidin-1-yl]pyrido[2,3-d]pyrimidin-2-yl}indazol-6-ol hydrochloride] | < 100 nM | < 100 nM | < 100 nM | < 100 nM | < 100 nM | < 100 nM | 100 to 1000 nM
8 | CN[C@@H]1CCN(c2cnc3nc(-c4cc5cn(C)nc5c(C)c4O)ccc3c2)C1 [Compound 112] | < 100 nM | < 100 nM | < 100 nM | < 100 nM | < 100 nM | < 100 nM | < 100 nM
9 | Cc1cn2nc(-c3cnc4nc(C5CCNCC5)ccc4c3)cc(C)c2n1 [Compound 115, 6-(2,8-dimethylimidazo[1,2-b]pyridazin-6-yl)-2-(piperidin-4-yl)-1,8-naphthyridine] | 1000 to 10000 nM | 1000 to 10000 nM | > 10000 nM | 1000 to 10000 nM | 1000 to 10000 nM | 1000 to 10000 nM | > 10000 nM
10 | CN[C@H]1CCN(c2cnc3nc(-c4cc(C)c5nc(C)cn5n4)ccc3c2)C1 [Compound 116] | < 100 nM | < 100 nM | < 100 nM | < 100 nM | < 100 nM | < 100 nM | 100 to 1000 nM
11 | CN[C@@H]1CCN(c2cnc3nc(-c4cc(C)c5nc(C)cn5n4)ccc3c2)C1 [Compound 117] | 1000 to 10000 nM | 1000 to 10000 nM | 100 to 1000 nM | < 100 nM | 100 to 1000 nM | < 100 nM | 1000 to 10000 nM
12 | Cc1c(O)c(-c2ccc3cc(N4CC[C@@H](NCC5CC5)C4)cnc3n2)cc2cn(C)nc12 [Compound 118] | < 100 nM | < 100 nM | < 100 nM | < 100 nM | < 100 nM | < 100 nM | 100 to 1000 nM
13 | CN[C@H]1CCN(c2cnc3nc(-c4cc5cn(C)nc5c(C)c4O)ncc3c2)C1 [Compound 120] | 100 to 1000 nM | 100 to 1000 nM | 100 to 1000 nM | < 100 nM | < 100 nM | < 100 nM | > 10000 nM
14 | CCNC1CCN(c2cnc3nc(-c4cc5cn(C)nc5c(C)c4O)ccc3c2)C1 (stereo not drawn) [Compound 122, 5-{6-[3-(ethylamino)pyrrolidin-1-yl]-1,8-naphthyridin-2-yl}-2,7-dimethylindazol-6-ol] | < 100 nM | < 100 nM | < 100 nM | < 100 nM | < 100 nM | < 100 nM | 100 to 1000 nM
15 | CCN[C@H]1CCN(c2cnc3nc(-c4cc5cn(C)nc5c(C)c4O)ccc3c2)C1 [Compound 123] | 100 to 1000 nM | 100 to 1000 nM | 100 to 1000 nM | < 100 nM | < 100 nM | < 100 nM | 100 to 1000 nM
16 | CCN[C@@H]1CCN(c2cnc3nc(-c4cc5cn(C)nc5c(C)c4O)ccc3c2)C1 [Compound 124] | < 100 nM | < 100 nM | < 100 nM | < 100 nM | < 100 nM | < 100 nM | 100 to 1000 nM
17 | CN[C@H]1CN(c2cnc3nc(-c4cc5cn(C)nc5c(C)c4O)ccc3c2)C[C@H]1C [Compound 125, 2,7-dimethyl-5-{6-[(3R,4R)-3-methyl-4-(methylamino)379pyrrolidine-1-yl]-1,8-naphthyridin-2-yl}indazol-6-ol] | 100 to 1000 nM | 100 to 1000 nM | 100 to 1000 nM | < 100 nM | < 100 nM | < 100 nM | 100 to 1000 nM
18 | CN[C@@H]1CN(c2cnc3nc(-c4cc5cn(C)nc5c(C)c4O)ccc3c2)C[C@H]1C [Compound 126, 2,7-dimethyl-5-{6-[(3R,4S)-3-methyl-4-(methylamino)382pyrrolidine-1-yl]-1,8-naphthyridin-2-yl}indazol-6-ol] | 100 to 1000 nM | 100 to 1000 nM | 1000 to 10000 nM | 100 to 1000 nM | 100 to 1000 nM | 100 to 1000 nM | 1000 to 10000 nM
19 | CN[C@H]1CN(c2cnc3nc(-c4cc5cn(C)nc5c(C)c4O)ccc3c2)C[C@@H]1C [Compound 127, 2,7-dimethyl-5-{6-[(3S,4R)-3-methyl-4-(methylamino)384pyrrolidine-1-yl]-1,8-naphthyridin-2-yl}indazol-6-ol] | 100 to 1000 nM | 100 to 1000 nM | 100 to 1000 nM | < 100 nM | 100 to 1000 nM | < 100 nM | 100 to 1000 nM

— patent publication US20250326748A1, “COMPOUNDS AND METHODS FOR MODULATING SPLICING” (REMIX THERAPEUTICS INC., priority 2022, published 2025)
